{"source": "patent US10913727B2", "about": "“Modulators of the integrated stress pathway” (Calico Life Sciences LLC, priority 2016, dated 2021)", "note": "pEC50: −log10 of the molar value."}
{"test_system": "HEK293T cells carrying the ATF4 luciferase reporter", "test": "ATF4-Luc assay, in vitro model of Vanishing Cell White Matter Disease (VWMD)", "type": "cell-based", "conditions": "Homo sapiens, HEK-293T, 1 μg/mL tunicamycin, 7 hours, One Glo luminescence", "protocol": "In order to test exemplary compounds of the invention in a cellular context, a stable VWMD cell line was first constructed. The ATF4 reporter was prepared by fusing the human full-length ATF4 5′-UTR (NCBI Accession No. BC022088.2) in front of the firefly luciferase (FLuc) coding sequence lacking the initiator methionine as described in Sidrauski et al (eLife 2013). The construct was used to produce recombinant retroviruses using standard methods and the resulting viral supernatant was used to transduce HEK293T cells, which were then subsequently selected with puromycin to generate a stable cell line.\nHEK293T cells carrying the ATF4 luciferase reporter were plated on polylysine coated 384-well plates (Greiner Bio-one) at 30,000 cells per well. Cells were treated the next day with 1 μg/mL tunicamycin and 200 nM of a compound of Formula (I) for 7 hours. Luminescence was measured using One Glo (Promega) as specified by the manufacturer. Cells were maintained in DMEM with L-glutamine supplemented with 10% heat-inactivated FBS (Gibco) and Antibiotic-Antimycotic solution (Gibco).\nTable 2 below summarizes the EC50 data obtained using the ATF4-Luc assay for exemplary compounds of the invention."}
{"smiles": "Cn1cc2c(NC34CC(NC(=O)COc5ccc(Cl)c(F)c5)(C3)C4)nccc2n1", "note": "[Compound 492, 2-(4-chloro-3-fluorophenoxy)-N-{3-[(2-methyl-2H-pyrazolo[4,3-c]pyridin-4-yl)amino]bicyclo[1.1.1]pentan-1-yl}acetamide]", "pEC50": "6.60 to 7.30"}
{"smiles": "O=C(COc1ccc(Cl)c(F)c1)NC12CC(NC(=O)c3ccn4nccc4n3)(C1)C2", "note": "[Compound 631, N-{3-[2-(4-chloro-3-fluorophenoxy)acetamido]bicyclo[1.1.1]pentan-1-yl}pyrazolo[1,5-a]pyrimidine-5-carboxamide]", "pEC50": "6.60 to 7.30"}
{"smiles": "Cc1ccncc1C(=O)NC12CC(NC(=O)COc3ccc(Cl)c(F)c3)(C1)C2", "note": "[Compound 738, N-{3-[2-(4-chloro-3-fluorophenoxy)acetamido]bicyclo[1.1.1]pentan-1-yl}-4-methylpyridine-3-carboxamide]", "pEC50": "< 5.70"}
{"smiles": "Cc1cnc(C(=O)NC23CC(NC(=O)COc4ccc(Cl)c(Cl)c4)(C2)C3)cn1", "note": "[Compound 131, N-{3-[2-(3,4-dichlorophenoxy)acetamido]bicyclo[1.1.1]pentan-1-yl}-5-methylpyrazine-2-carboxamide]", "pEC50": "6.60 to 7.30"}
{"smiles": "CCSc1cncc(C(=O)NC23CC(NC(=O)COc4ccc(Cl)c(F)c4)(C2)C3)n1", "note": "[Compound 898, N-{3-[2-(4-chloro-3-fluorophenoxy)acetamido]bicyclo[1.1.1]pentan-1-yl}-6-(ethylsulfanyl)pyrazine-2-carboxamide]", "pEC50": "6.60 to 7.30"}
{"smiles": "Cc1noc(C(=O)NC23CC(NC(=O)COc4ccc(Cl)c(F)c4)(C2)C3)n1", "note": "[Compound 375, N-{3-[2-(4-chloro-3-fluorophenoxy)acetamido]bicyclo[1.1.1]pentan-1-yl}-3-methyl-1,2,4-oxadiazole-5-carboxamide]", "pEC50": "6.60 to 7.30"}
{"smiles": "Cc1oncc1C(=O)NC12CCC(NC(=O)COc3ccc(Cl)c(F)c3)(CC1)C(O)C2", "note": "(stereo not shown) [Compound 604, N-{4-[2-(4-chloro-3-fluorophenoxy)acetamido]-3-hydroxybicyclo[2.2.2]octan-1-yl}-5-methyl-1,2-oxazole-4-carboxamide]", "pEC50": "< 5.70"}
{"smiles": "O=C(COc1ccc(Cl)c(F)c1)NC12CCC(NC(=O)c3ccc(Cl)cn3)(CC1)C[C@@H]2O", "note": "[Compound 730, 5-chloro-N-{(3S)-4-[2-(4-chloro-3-fluorophenoxy)acetamido]-3-hydroxybicyclo[2.2.2]octan-1-yl}pyridine-2-carboxamide]", "pEC50": "6.60 to 7.30"}
{"smiles": "O=C(COc1ccc(F)c(F)c1)NC12CC(Nc3cnc(-c4cccnc4)cn3)(C1)C2", "note": "[Compound 731, 2-(3,4-difluorophenoxy)-N-(3-{[5-(pyridin-3-yl)pyrazin-2-yl]amino}bicyclo[1.1.1]pentan-1-yl)acetamide]", "pEC50": "5.70 to 6.00"}
{"smiles": "Cn1c(=O)n(C)c2cc(C(=O)NC34CC(NC(=O)COc5ccc(Cl)c(F)c5)(C3)C4)ccc21", "note": "[Compound 776, N-{3-[2-(4-chloro-3-fluorophenoxy)acetamido]bicyclo[1.1.1]pentan-1-yl}-1,3-dimethyl-2-oxo-2,3-dihydro-1H-benzimidazole-5-carboxamide]", "pEC50": "< 5.70"}
{"smiles": "O=C(COc1ccc(Cl)c(F)c1)NC12CC(NC(=O)c3ccc(C(F)F)cn3)(C1)C2", "note": "[Compound 233, N-{3-[2-(4-chloro-3-fluorophenoxy)acetamido]bicyclo[1.1.1]pentan-1-yl}-5-(difluoromethyl)pyridine-2-carboxamide]", "pEC50": "> 7.30"}
{"smiles": "O=C(COc1ccc(Cl)c(F)c1)NC12CC(NC(=O)c3cnoc3C3CC3)(C1)C2", "note": "[Compound 900, N-{3-[2-(4-chloro-3-fluorophenoxy)acetamido]bicyclo[1.1.1]pentan-1-yl}-5-cyclopropyl-1,2-oxazole-4-carboxamide]", "pEC50": "< 5.70"}
{"smiles": "Cc1cc2c(NC34CC(NC(=O)COc5cc(F)c(F)c(F)c5)(C3)C4)nccn2n1", "note": "[Compound 495, N-{3-[(2-methylpyrazolo[1,5-a]pyrazin-4-yl)amino]bicyclo[1.1.1]pentan-1-yl}-2-(3,4,5-trifluorophenoxy)acetamide]", "pEC50": "6.00 to 6.60"}
{"smiles": "O=C(COc1ccc(Cl)c(F)c1)NC12CC(NC(=O)c3coc(C(F)(F)F)c3)(C1)C2", "note": "[Compound 544, N-{3-[2-(4-chloro-3-fluorophenoxy)acetamido]bicyclo[1.1.1]pentan-1-yl}-5-(trifluoromethyl)furan-3-carboxamide]", "pEC50": "> 7.30"}
{"smiles": "O=C(COc1ccc(Cl)c(F)c1)NC12CC(NC(=O)c3cc4ccccn4c3)(C1)C2", "note": "[Compound 689, N-{3-[2-(4-chloro-3-fluorophenoxy)acetamido]bicyclo[1.1.1]pentan-1-yl}indolizine-2-carboxamide]", "pEC50": "6.60 to 7.30"}
{"smiles": "Cn1nnc2cc(C(=O)NC34CC(NC(=O)COc5ccc(Cl)c(F)c5)(C3)C4)ccc21", "note": "[Compound 785, N-{3-[2-(4-chloro-3-fluorophenoxy)acetamido]bicyclo[1.1.1]pentan-1-yl}-1-methyl-1H-benzotriazole-5-carboxamide]", "pEC50": "< 5.70"}
{"smiles": "O=C(COc1ccc(Cl)c(F)c1)NC12CCC(NC(=O)c3coc4c3C(=O)CCC4)(CC1)C(O)C2", "note": "(stereo not shown) [Compound 222, N-{4-[2-(4-chloro-3-fluorophenoxy)acetamido]-2-hydroxybicyclo[2.2.2]octan-1-yl}-4-oxo-4,5,6,7-tetrahydro-1-benzofuran-3-carboxamide]", "pEC50": "< 5.70"}
{"smiles": "O=C(COc1ccc(Cl)c(F)c1)NC12CC(NC(=O)c3cncc(N4CCOCC4)n3)(C1)C2", "note": "[Compound 894, N-{3-[2-(4-chloro-3-fluorophenoxy)acetamido]bicyclo[1.1.1]pentan-1-yl}-6-(morpholin-4-yl)pyrazine-2-carboxamide]", "pEC50": "6.00 to 6.60"}
{"smiles": "Cn1cc(-c2cc(C(=O)NC34CC(NC(=O)COc5ccc(Cl)c(F)c5)(C3)C4)on2)cn1", "note": "[Compound 835, N-{3-[2-(4-chloro-3-fluorophenoxy)acetamido]bicyclo[1.1.1]pentan-1-yl}-3-(1-methyl-1H-pyrazol-4-yl)-1,2-oxazole-5-carboxamide]", "pEC50": "5.70 to 6.00"}
{"smiles": "O=C(COc1ccc(Cl)c(F)c1)NC12CC(NC(=O)c3cc4ccccc4o3)(C1)C2", "note": "[Compound 317, N-{3-[2-(4-chloro-3-fluorophenoxy)acetamido]bicyclo[1.1.1]pentan-1-yl}-1-benzofuran-2-carboxamide]", "pEC50": "> 7.30"}
{"smiles": "O=C(COc1ccc(Cl)c(F)c1)NC12CC(NC(=O)c3ccc(F)cc3F)(C1)C2", "note": "[Compound 511, N-{3-[2-(4-chloro-3-fluorophenoxy)acetamido]bicyclo[1.1.1]pentan-1-yl}-2,4-difluorobenzamide]", "pEC50": "6.00 to 6.60"}
{"smiles": "Cc1noc(C)c1C(=O)NC12CCC(NC(=O)COc3ccc(Cl)c(F)c3)(CC1)CC2O", "note": "(stereo not shown) [Compound 216, N-{4-[2-(4-chloro-3-fluorophenoxy)acetamido]-2-hydroxybicyclo[2.2.2]octan-1-yl}-3,5-dimethyl-1,2-oxazole-4-carboxamide]", "pEC50": "< 5.70"}
{"smiles": "Cc1csc(C(=O)NC23CCC(NC(=O)COc4ccc(Cl)c(F)c4)(CC2)C(O)C3)c1", "note": "(stereo not shown) [Compound 622, N-{4-[2-(4-chloro-3-fluorophenoxy)acetamido]-3-hydroxybicyclo[2.2.2]octan-1-yl}-4-methylthiophene-2-carboxamide]", "pEC50": "> 7.30"}
{"smiles": "O=C(COc1ccc(Cl)c(F)c1)NC12CC(NC(=O)c3cnc(O)[nH]3)(C1)C2", "note": "[Compound 812, N-{3-[2-(4-chloro-3-fluorophenoxy)acetamido]bicyclo[1.1.1]pentan-1-yl}-2-hydroxy-1H-imidazole-5-carboxamide]", "pEC50": "5.70 to 6.00"}
{"smiles": "Cn1nc(C2CC2)cc1C(=O)NC12CC(NC(=O)COc3ccc(Cl)c(F)c3)(C1)C2", "note": "[Compound 329, N-{3-[2-(4-chloro-3-fluorophenoxy)acetamido]bicyclo[1.1.1]pentan-1-yl}-3-cyclopropyl-1-methyl-1H-pyrazole-5-carboxamide]", "pEC50": "6.60 to 7.30"}
{"smiles": "O=C(COc1ccc(Cl)c(F)c1)NC12CC(NC(=O)c3ccc4ncoc4c3)(C1)C2", "note": "[Compound 834, N-{3-[2-(4-chloro-3-fluorophenoxy)acetamido]bicyclo[1.1.1]pentan-1-yl}-1,3-benzoxazole-6-carboxamide]", "pEC50": "6.00 to 6.60"}
{"smiles": "O=C(COc1ccc(F)c(F)c1)NC12CC(NC(=O)c3ccc(OC(F)(F)F)nc3)(C1)C2", "note": "[Compound 277, N-{3-[2-(3,4-difluorophenoxy)acetamido]bicyclo[1.1.1]pentan-1-yl}-6-(trifluoromethoxy)pyridine-3-carboxamide]", "pEC50": "5.70 to 6.00"}
{"smiles": "O=C(COc1ccc(Cl)c(F)c1)NC12CC(NC(=O)c3cncnc3)(C1)C2", "note": "[Compound 188, N-{3-[2-(4-chloro-3-fluorophenoxy)acetamido]bicyclo[1.1.1]pentan-1-yl}pyrimidine-5-carboxamide]", "pEC50": "6.00 to 6.60"}
{"smiles": "CCc1cc(C(=O)NC23CCC(NC(=O)COc4ccc(Cl)c(F)c4)(CC2)C(O)C3)no1", "note": "(stereo not shown) [Compound 606, N-{4-[2-(4-chloro-3-fluorophenoxy)acetamido]-3-hydroxybicyclo[2.2.2]octan-1-yl}-5-ethyl-1,2-oxazole-3-carboxamide]", "pEC50": "6.60 to 7.30"}
{"smiles": "O=C(COc1ccc(Cl)c(Cl)c1)NC12CC(NC(=O)c3ccc(CO)cn3)(C1)C2", "note": "[Compound 160, N-{3-[2-(3,4-dichlorophenoxy)acetamido]bicyclo[1.1.1]pentan-1-yl}-5-(hydroxymethyl)pyridine-2-carboxamide]", "pEC50": "6.00 to 6.60"}
{"smiles": "Cc1c(C(=O)NC23CCC(NC(=O)COc4ccc(Cl)c(F)c4)(CC2)CC3O)cnn1-c1ccccc1", "note": "(stereo not shown) [Compound 221, N-{4-[2-(4-chloro-3-fluorophenoxy)acetamido]-2-hydroxybicyclo[2.2.2]octan-1-yl}-5-methyl-1-phenyl-1H-pyrazole-4-carboxamide]", "pEC50": "5.70 to 6.00"}
